Data as given in US8598357B2, “Benzodioxole piperidine compounds” (Hoffmann-La Roche Inc., priority 2011, dated 2013).
Like-named read-outs stand apart in the source and are kept apart here.

How the values were obtained:
D2 receptor = D2 receptor (Homo sapiens (Human), UniProt P14416); assay: Radioligand binding assay ([3H]-spiperone) on membranes of HEK293 EBNA cells expressing human D2 receptor; conditions: human receptor in HEK293 EBNA cells; 0.7 nM [3H]-spiperone
Experimental: (§1) HEK293 EBNA cells were transiently transfected with expression plasmids encoding for the human D2 or D3 or for the human 5-HT2A receptor, respectively. The cells were harvested 48 h post-transfection, washed three times with cold PBS and stored at −80° C. prior to use. The pellet was suspended in cold 50 mM Tris-HCl buffer containing 10 mM EDTA (pH 7.4) and was homogenized with a Polytron (Kinematica AG, Basel, Switzerland) for 20-30 sec at 12.000 rpm. After centrifugation at 48.000×g for 30 min at 4° C., the pellet was resuspended in cold 10 mM Tris-HCl buffer containing 0.1 mM EDTA (pH 7.4), homogenized, and centrifuged as above. This pellet was further resuspended in a smaller volume of ice cold 10 mM Tris-HCl buffer containing 0.1 mM EDTA (pH 7.4) and homogenized with a Polytron for 20-30 sec at 12.000 rpm. The protein content of this homogenate was determined with the Bio-Rad (Bradford) Protein Assay (Biorad Laboratories GmbH, München, Germany) according to the instructions of the manufacturer using gamma globulin as the standard. This homogenate was stored at −80° C. in aliquots and thawed immediately prior to use.
(§2) Aliquots of membrane preparations were thawed at RT, resuspended in assay buffer (D2, D3: 50 mM Tris-HCl, 120 mM NaCl, 5 mM MgCl2, 1 mM EDTA, 5 mM KCl, 1.5 mM CaCl2, pH=7.4; 5-HT2A: 50 mM Tris-HCl, 10 mM MgCl2, 1 mM EGTA, pH=7.4), homogenized with a Polytron for 20-30 sec at 12.000 rpm and adjusted to a final concentration of approximately 7.5 μg protein/well (D2, D3) and 15 μg protein/well (5-HT2A), respectively.
(§3) The nonspecific binding was determined with equally composed reaction mixtures in the presence of 10 μM unlabelled spiperone. Per well 45 μl of Microscint 40 (Perkin Elmer, Schwerzenbach, Switzerland) was added, plates for sealed, shaken for 20 min and counted for 3 min on a Topcount Microplate Scintillation Counter (Can berra Packard SA, Ziirich, Switzerland) with quenching correction.
(§4) The CPM value for each duplicate of a concentration of competing compound was averaged (y1), then the % specific binding was calculated according to the equation (((y1−non-specific)/(total binding−non-specific))×100). Graphs were plotted with the % specific binding using XLfit, a curve fitting program that iteratively plots the data using Levenberg-Marquardt algorithm. The single site competition analysis equation used was y=A+((B−A)/(1+((x/C)D))), where y is the % specific binding, A is the minimum y, B is the maximum y, C is the IC50, x is the log 10 of the concentration of the competing compound and D is the slope of the curve (the Hill Coefficient). […] The affinity constant (K) was calculated using the Cheng-Prusoff equation Ki=(IC50/1+([L]/Kd), where [L] is the concentration of radioligand and Kd is the dissociation constant of the radioligand at the receptor as determined by the saturation isotherm.

D3 receptor = D3 receptor (Homo sapiens (Human), UniProt P35462); assay: Radioligand binding assay ([3H]-spiperone) on membranes of HEK293 EBNA cells expressing human D3 receptor; conditions: read-out: D3 Ki; human receptor in HEK293 EBNA cells; 0.5 nM [3H]-spiperone
Experimental: as §1, §2, §3, §4

5-HT2A receptor = 5-HT2A receptor (Homo sapiens (Human), UniProt P28223); assay: Radioligand binding assay ([3H]-ketanserin) on membranes of HEK293 EBNA cells expressing human 5-HT2A receptor; conditions: read-out: 5HT2A Ki
Experimental: as §1, §2, §3, §4

[1] = human receptor in HEK293 EBNA cells, 1.1 nM [3H]-ketanserin

D3 receptor, sequence (P35462 whole entry): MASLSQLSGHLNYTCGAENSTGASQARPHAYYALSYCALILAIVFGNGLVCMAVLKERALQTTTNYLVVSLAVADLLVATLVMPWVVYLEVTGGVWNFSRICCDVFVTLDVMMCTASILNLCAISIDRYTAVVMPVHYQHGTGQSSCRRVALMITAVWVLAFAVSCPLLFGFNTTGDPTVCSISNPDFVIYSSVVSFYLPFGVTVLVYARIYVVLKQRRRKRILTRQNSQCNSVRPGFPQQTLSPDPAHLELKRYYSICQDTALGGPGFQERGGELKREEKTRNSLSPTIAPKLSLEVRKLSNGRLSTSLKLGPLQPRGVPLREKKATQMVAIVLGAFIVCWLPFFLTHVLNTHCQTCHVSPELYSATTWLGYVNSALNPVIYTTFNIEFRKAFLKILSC
D2 receptor, sequence (P14416 whole entry): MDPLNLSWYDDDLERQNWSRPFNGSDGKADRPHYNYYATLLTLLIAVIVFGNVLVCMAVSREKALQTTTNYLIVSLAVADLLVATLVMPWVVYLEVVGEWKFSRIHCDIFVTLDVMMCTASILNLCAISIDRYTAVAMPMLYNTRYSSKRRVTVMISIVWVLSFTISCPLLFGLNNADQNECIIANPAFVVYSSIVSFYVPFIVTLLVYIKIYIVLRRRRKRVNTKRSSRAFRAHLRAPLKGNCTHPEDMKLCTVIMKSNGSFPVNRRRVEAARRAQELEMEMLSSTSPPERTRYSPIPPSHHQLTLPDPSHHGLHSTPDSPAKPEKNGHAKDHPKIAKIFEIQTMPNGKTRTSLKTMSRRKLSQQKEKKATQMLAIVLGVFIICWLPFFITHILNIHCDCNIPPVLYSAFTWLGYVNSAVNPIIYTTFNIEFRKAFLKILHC

Question: How did the Ki (D2 receptor) turn out when `CN(C)C(=O)N[C@H]1CC[C@H](CCN2CCC(c3cccc4c3OCO4)CC2)CC1` [Example 75, N-Trans-3-{4-[2-(4-Benzo[1,3]dioxol-4-yl-piperidin-1-yl)-ethyl]cyclohexyl}-1,1-dimethyl-urea] was run?
Answer: 52.7 nM

Question: And the Ki (D3 receptor)?
Answer: 32.9 nM

Question: And the Ki (5-HT2A receptor; [1])?
Answer: 45.5 nM

Question: With `CO[C@H]1CC[C@H](CC(=O)N[C@H]2CC[C@H](CCN3CCC(c4cccc5c4OCO5)CC3)CC2)CC1` [Example 63, Trans-N-{4-[2-(4-Benzo[1,3]dioxol-4-yl-piperidin-1-yl)-ethyl]-cyclohexyl}-2-(4-methoxy-cyclohexyl)-acetamide] as the compound, how does the Ki (D2 receptor) read?
Answer: 361 nM

Question: What about the Ki (D3 receptor) of the same compound?
Answer: 8.13 nM

Question: What about the Ki (5-HT2A receptor; [1]) of the same compound?
Answer: 34.3 nM

Question: What does the source list for `O=C(CC1(O)CCCCC1)N[C@H]1CC[C@H](CCN2CCC(c3cccc4c3OCO4)CC2)CC1` [Example 21, Trans-N-{4-[2-(4-Benzo[1,3]dioxol-4-yl-piperidin-1-yl)-ethyl]-cyclohexyl}-2-(1-hydroxy-cyclohexyl)-acetamide]?
Answer: Ki (D2 receptor): 361 nM; Ki (D3 receptor): 10.4 nM; Ki (5-HT2A receptor): 15.7 nM

Question: `CC(=O)N[C@H]1CC[C@H](CCN2CCC(c3cccc4c3OCO4)CC2)CC1` [Example 1, Trans-N-{4-[2-(4-Benzo[1,3]dioxol-4-yl-piperidin-1-yl)-ethyl]-cyclohexyl}-acetamide] was tested. Which Ki (D2 receptor) did it give?
Answer: 254 nM

Question: And the Ki (D3 receptor)?
Answer: 4.99 nM

Question: What about the Ki (5-HT2A receptor; [1]) of the same compound?
Answer: 23.9 nM

Question: Which Ki (D2 receptor) does the source give for `O=C(N[C@H]1CC[C@H](CCN2CCC(c3cccc4c3OCO4)CC2)CC1)C1CC1(F)F` (stereo partly drawn) [Example 26, Trans-2,2-Difluoro-cyclopropanecarboxylic acid {4-[2-(4-benzo[1,3]dioxol-4-yl-piperidin-1-yl)-ethyl]-cyclohexyl}-amide] here?
Answer: 194 nM

Question: And the Ki (D3 receptor)?
Answer: 7.72 nM

Question: What about the Ki (5-HT2A receptor; [1]) of the same compound?
Answer: 26.7 nM

Question: How did the Ki (D2 receptor) turn out when `O=S(=O)(N[C@H]1CC[C@H](CCN2CCC(c3cccc4c3OCO4)CC2)CC1)N1CCOCC1` [Example 79, Morpholine-4-sulfonic acid-Trans-N-{4-[2-(4-benzo[1,3]dioxol-4-yl-piperidin-1-yl)-ethyl]-cyclohexyl}-amide] was run?
Answer: 229 nM

Question: And the Ki (D3 receptor)?
Answer: 6.11 nM

Question: What about the Ki (5-HT2A receptor) of the same compound?
Answer: 56.1 nM

Question: Which results are given for `O=C(CF)N[C@H]1CC[C@H](CCN2CCC(c3cccc4c3OCO4)CC2)CC1` [Example 76, Trans-N-{4-[2-(4-Benzo[1,3]dioxol-4-yl-piperidin-1-yl)-ethyl]-cyclohexyl}-2-fluoro-acetamide]?
Answer: Ki (D2 receptor): 230 nM; Ki (D3 receptor): 12.4 nM; Ki (5-HT2A receptor; [1]): 39.9 nM

Question: Which results are given for `O=C(N[C@H]1CC[C@H](CCN2CCC(c3cccc4c3OCO4)CC2)CC1)c1ccc(Cl)cc1` [Example 36, Trans-N-{4-[2-(4-Benzo[1,3]dioxol-4-yl-piperidin-1-yl)-ethyl]-cyclohexyl}-4-chloro-benzamide]?
Answer: Ki (D2 receptor): 147 nM; Ki (D3 receptor): 6.36 nM; Ki (5-HT2A receptor; [1]): 21.8 nM

Question: With `CCOCCC(=O)N[C@H]1CC[C@H](CCN2CCC(c3cccc4c3OCO4)CC2)CC1` [Example 44, Trans-N-{4-[2-(4-Benzo[1,3]dioxol-4-yl-piperidin-1-yl)-ethyl]-cyclohexyl}-3-ethoxy-propionamide] as the compound, how does the Ki (D2 receptor) read?
Answer: 393 nM

Question: And the Ki (D3 receptor)?
Answer: 7.32 nM

Question: And the Ki (5-HT2A receptor; [1])?
Answer: 55 nM

Question: `O=C(N[C@H]1CC[C@H](CCN2CCC(c3cccc4c3OCO4)CC2)CC1)C(F)(F)F` [Example 73, Trans-N-{4-[2-(4-Benzo[1,3]dioxol-4-yl-piperidin-1-yl)-ethyl]-cyclohexyl}-2,2,2-trifluoro-acetamide] was tested. Which Ki (D2 receptor) did it give?
Answer: 346 nM

Question: What about the Ki (D3 receptor) of the same compound?
Answer: 21.4 nM

Question: What about the Ki (5-HT2A receptor; [1]) of the same compound?
Answer: 37.4 nM

Question: `O=C(N[C@H]1CC[C@H](CCN2CCC(c3cccc4c3OCO4)CC2)CC1)C1CCS(=O)(=O)C1` (stereo partly drawn) [Example 52, 1,1-Dioxo-tetrahydro-thiophene-3-carboxylic acid-trans-{4-[2-(4-benzo[1,3]dioxol-4-yl-piperidin-1-yl)-ethyl]-cyclohexyl}-amide] was tested. Which Ki (D2 receptor) did it give?
Answer: 130 nM

Question: What about the Ki (D3 receptor) of the same compound?
Answer: 16.3 nM

Question: What about the Ki (5-HT2A receptor) of the same compound?
Answer: 4.57 nM

Question: Which Ki (D2 receptor) does the source give for `CS(=O)(=O)N[C@H]1CC[C@H](CCN2CCC(c3cccc4c3OCO4)CC2)CC1` [Example 69, Trans-N-{4-[2-(4-Benzo[1,3]dioxol-4-yl-piperidin-1-yl)-ethyl]-cyclohexyl}-methanesulfonamide] here?
Answer: 414 nM

Question: What about the Ki (D3 receptor) of the same compound?
Answer: 10.5 nM

Question: What about the Ki (5-HT2A receptor; [1]) of the same compound?
Answer: 31.3 nM

Question: `O=C(C[C@@H]1CCCOC1)N[C@H]1CC[C@H](CCN2CCC(c3cccc4c3OCO4)CC2)CC1` [Example 42, Trans-N-{4-[2-(4-Benzo[1,3]dioxol-4-yl-piperidin-1-yl)-ethyl]-cyclohexyl}-2-(S)-tetrahydro-pyran-3-yl-acetamide] was tested. Which Ki (D2 receptor) did it give?
Answer: 322 nM

Question: What about the Ki (D3 receptor) of the same compound?
Answer: 11.7 nM

Question: And the Ki (5-HT2A receptor; [1])?
Answer: 20.1 nM

Question: Which Ki (D2 receptor) does the source give for `O=C(N[C@H]1CC[C@H](CCN2CCC(c3cccc4c3OCO4)CC2)CC1)C1CCOCC1` [Example 48, Tetrahydro-pyran-4-carboxylic acid-trans-{4-[2-(4-benzo[1,3]dioxol-4-yl-piperidin-1-yl)-ethyl]-cyclohexyl}-amide] here?
Answer: 184 nM

Question: And the Ki (D3 receptor)?
Answer: 13.8 nM

Question: What about the Ki (5-HT2A receptor; [1]) of the same compound?
Answer: 9.52 nM

Question: `O=C(N[C@H]1CC[C@H](CCN2CCC(c3cccc4c3OCO4)CC2)CC1)C1CCCO1` (stereo partly drawn) [Example 46, Tetrahydro-furan-2-carboxylic acid-trans-{4-[2-(4-benzo[1,3]dioxol-4-yl-piperidin-1-yl)-ethyl]-cyclohexyl}-amide] was tested. Which Ki (D2 receptor) did it give?
Answer: 464 nM

Question: What about the Ki (D3 receptor) of the same compound?
Answer: 47.6 nM

Question: And the Ki (5-HT2A receptor; [1])?
Answer: 14.4 nM

Question: With `CN(C)S(=O)(=O)N[C@H]1CC[C@H](CCN2CCC(c3cccc4c3OCO4)CC2)CC1` [Example 78, Trans-N-{4-[2-(4-benzo[1,3]dioxol-4-yl-piperidin-1-yl)-ethyl]-cyclohexyl}-N,N-dimethyl-sulfamide] as the compound, how does the Ki (D2 receptor) read?
Answer: 229 nM

Question: And the Ki (D3 receptor)?
Answer: 11.6 nM

Question: What about the Ki (5-HT2A receptor; [1]) of the same compound?
Answer: 20.7 nM

Question: How did the Ki (D2 receptor) turn out when `CO[C@@H]1CC[C@@H](CC(=O)N[C@H]2CC[C@H](CCN3CCC(c4cccc5c4OCO5)CC3)CC2)C1` [Example 30, Trans-N-{4-[2-(4-Benzo[1,3]dioxol-4-yl-piperidin-1-yl)-ethyl]-cyclohexyl}-2-((1R,3R)-3-methoxy-cyclopentyl)-acetamide] was run?
Answer: 331 nM

Question: And the Ki (D3 receptor)?
Answer: 5.29 nM

Question: What about the Ki (5-HT2A receptor; [1]) of the same compound?
Answer: 27.4 nM

Question: For `O=C(N[C@H]1CC[C@H](CCN2CCC(c3cccc4c3OCO4)CC2)CC1)C1CCC1` [Example 54, Cyclobutanecarboxylic acid-trans-{4-[2-(4-benzo[1,3]dioxol-4-yl-piperidin-1-yl)-ethyl]-cyclohexyl}-amide], which Ki (D2 receptor) is on record?
Answer: 100 nM

Question: What about the Ki (D3 receptor) of the same compound?
Answer: 8 nM

Question: What about the Ki (5-HT2A receptor) of the same compound?
Answer: 16.9 nM

Question: What does the source list for `O=C(N[C@H]1CC[C@H](CCN2CCC(c3cccc4c3OCO4)CC2)CC1)C1CCOC1` (stereo partly drawn) [Example 47, Tetrahydro-furan-3-carboxylic acid-trans-{4-[2-(4-benzo[1,3]dioxol-4-yl-piperidin-1-yl)-ethyl]-cyclohexyl}-amide]?
Answer: Ki (D2 receptor): 165 nM; Ki (D3 receptor): 7.61 nM; Ki (5-HT2A receptor; [1]): 24.1 nM

Question: Which results are given for `O=C(N[C@H]1CC[C@H](CCN2CCC(c3cccc4c3OCO4)CC2)CC1)N1CCc2ccccc21` [Example 74, 2,3-Dihydro-indole-1-carboxylic acid N-trans-{4-[2-(4-benzo[1,3]dioxol-4-yl-piperidin-1-yl)-ethyl]-cyclohexyl}-amide]?
Answer: Ki (D2 receptor): 229 nM; Ki (D3 receptor): 5.12 nM; Ki (5-HT2A receptor): 25.4 nM

Question: Which Ki (D2 receptor) does the source give for `CCC(C)C(=O)N[C@H]1CC[C@H](CCN2CCC(c3cccc4c3OCO4)CC2)CC1` (stereo partly drawn) [Example 51, Trans-N-{4-[2-(4-Benzo[1,3]dioxol-4-yl-piperidin-1-yl)-ethyl]-cyclohexyl}-2-methyl-butyramide] here?
Answer: 352 nM

Question: And the Ki (D3 receptor)?
Answer: 13.8 nM

Question: What about the Ki (5-HT2A receptor) of the same compound?
Answer: 25 nM

Question: `O=C(N[C@H]1CC[C@H](CCN2CCC(c3cccc4c3OCO4)CC2)CC1)[C@H](O)C(F)(F)F` [Example 38, Trans-(S)—N-{4-[2-(4-Benzo[1,3]dioxol-4-yl-piperidin-1-yl)-ethyl]-cyclohexyl}-3,3,3-trifluoro-2-hydroxy-propionamide] was tested. Which Ki (D2 receptor) did it give?
Answer: 209 nM

Question: What about the Ki (D3 receptor) of the same compound?
Answer: 7.63 nM

Question: And the Ki (5-HT2A receptor)?
Answer: 20.8 nM

Question: Which Ki (D2 receptor) does the source give for `C[C@@H](O)C(=O)N[C@H]1CC[C@H](CCN2CCC(c3cccc4c3OCO4)CC2)CC1` [Example 64, (R)-trans-N-{4-[2-(4-Benzo[1,3]dioxol-4-yl-piperidin-1-yl)-ethyl]-cyclohexyl}-2-hydroxy-propionamide] here?
Answer: 268 nM

Question: And the Ki (D3 receptor)?
Answer: 11.1 nM

Question: And the Ki (5-HT2A receptor; [1])?
Answer: 10.7 nM

Question: For `O=C(N[C@H]1CC[C@H](CCN2CCC(c3cccc4c3OCO4)CC2)CC1)c1ccnc2ccccc12` [Example 57, Quinoline-4-carboxylic acid-trans-N-{4-[2-(4-benzo[1,3]dioxol-4-yl-piperidin-1-yl)-ethyl]-cyclohexyl}-amide], which Ki (D2 receptor) is on record?
Answer: 370 nM

Question: And the Ki (D3 receptor)?
Answer: 6.16 nM

Question: And the Ki (5-HT2A receptor; [1])?
Answer: 23.1 nM

Question: `O=C(CC1CCCCO1)N[C@H]1CC[C@H](CCN2CCC(c3cccc4c3OCO4)CC2)CC1` (stereo partly drawn) [Example 22, Trans-N-{4-[2-(4-Benzo[1,3]dioxol-4-yl-piperidin-1-yl)-ethyl]-cyclohexyl}-2-(tetrahydro-pyran-2-yl)-acetamide] was tested. Which Ki (D2 receptor) did it give?
Answer: 523 nM

Question: What about the Ki (D3 receptor) of the same compound?
Answer: 9.35 nM

Question: What about the Ki (5-HT2A receptor) of the same compound?
Answer: 15.6 nM

Question: With `COC(C)CC(=O)N[C@H]1CC[C@H](CCN2CCC(c3cccc4c3OCO4)CC2)CC1` (stereo partly drawn) [Example 27, Trans-N-{4-[2-(4-Benzo[1,3]dioxol-4-yl-piperidin-1-yl)-ethyl]-cyclohexyl}-3-methoxy-butyramide] as the compound, how does the Ki (D2 receptor) read?
Answer: 402 nM

Question: And the Ki (D3 receptor)?
Answer: 7.52 nM

Question: What about the Ki (5-HT2A receptor) of the same compound?
Answer: 33.6 nM

Question: How did the Ki (D2 receptor) turn out when `Cn1cnc(S(=O)(=O)N[C@H]2CC[C@H](CCN3CCC(c4cccc5c4OCO5)CC3)CC2)c1` [Example 72, 1-Methyl-1H-imidazole-4-sulfonic acid-trans-N-{4-[2-(4-benzo[1,3]dioxol-4-yl-piperidin-1-yl)-ethyl]-cyclohexyl}-amide] was run?
Answer: 114 nM

Question: And the Ki (D3 receptor)?
Answer: 12.4 nM

Question: What about the Ki (5-HT2A receptor; [1]) of the same compound?
Answer: 64.8 nM

Question: Which results are given for `Cc1cc(CC(=O)N[C@H]2CC[C@H](CCN3CCC(c4cccc5c4OCO5)CC3)CC2)on1` [Example 19, Trans-N-{4-[2-(4-Benzo[1,3]dioxol-4-yl-piperidin-1-yl)-ethyl]-cyclohexyl}-2-(3-methyl-isoxazol-5-yl)-acetamide]?
Answer: Ki (D2 receptor): 516 nM; Ki (D3 receptor): 1.19 nM; Ki (5-HT2A receptor; [1]): 19.8 nM
